From US12583861B2, “Derivatives of imidazo[4,5-d]pyridazine, their preparation and their therapeutic application” (SANOFI, priority 2021, dated 2026)

Legend:
Format in all cases: cell-based
[1] = tested on: IL-6; experiment: IL-6 cytokine activation in human PBMC (MSD assay); conditions: Homo sapiens, PBMC, 24 h, read-out: IL6 EC50
Method: (§1) The other below tests involving measuring the in vitro activity of some compounds of the disclosure on cytokines IFN-α2a, IL-6, IL29 and TNF-α were carried out using human PBMC (PBMCs).
(§2) The activity described below, with respect to TLR7, TLR8, IFN-α2a, IL-6, IL29 and TNF-α, is given by the half maximal effective concentration (EC50), which corresponds to the concentration required to obtain a 50% of the activation. The lower the EC50, the less the concentration of the compound is required to produce 50% of maximum activation and the higher the potency.
(§3) In Vitro Assay to Determine IFN-α2a, IL-6, IL29 and TNF-α Cytokine Activation:
(§4) Peripheral blood mononuclear cells were isolated by Ficoll density gradient centrifugation from peripheral blood samples obtained from healthy donors (EFS). Isolated PBMCs are washed twice with PBS and resuspended in RPMI-1640 medium supplement with 10% fetal bovine serum (FBS) at 5.10^5 cells/well in a 96-well plate. The cells were then incubated with the compounds to test at various doses (20 μM to 4.8.10-6 μM final) for 24 h at 37° C., 5% CO2. After 24 h treatment, the plates are centrifuged and the supernatant were collected and assayed for cytokines IFN-α2a, IL-6, IL29 and TNF-α using the Meso Scale Discovery (MSD) assay platform according to the manufacturer's instructions. Briefly, 25 μL of cell culture supernatants were incubated for 1 h at Room Temperature (RT) in custom Multi-Spot 96-well plates prior coated with capture antibodies. After washing, SULFO-TAG® labeled detection antibodies were added to each of the wells and incubated for 1 h RT before adding a read buffer.

[2] = tested on: IFN-α2a; experiment: IFN-α2a cytokine activation in human PBMC (MSD assay); conditions: Homo sapiens, PBMC, 24 h
Method: as §1, §2, §3, §4

[3] = tested on: IL29; experiment: IL29 cytokine activation in human PBMC (MSD assay); conditions: Homo sapiens, PBMC, 24 h
Method: as §1, §2, §3, §4

[4] = tested on: TNF-α; experiment: TNF-α cytokine activation in human PBMC (MSD assay); conditions: Homo sapiens, PBMC, 24 h
Method: as §1, §2, §3, §4

[5] = target: T1, human TLR8 (Homo sapiens, UniProt Q9NR97); experiment: HEK-Blue hTLR8 reporter cell assay (SEAP, NF-kB/AP-1) for stimulation of human TLR8; conditions: HEK-Blue hTLR8 cells, 24 h incubation, SEAP readout; read-out: TLR8_EC50
T1 construct: host or cells: HEK293 (HEK-Blue hTLR8)
T1 sequence (Q9NR97 27-1041): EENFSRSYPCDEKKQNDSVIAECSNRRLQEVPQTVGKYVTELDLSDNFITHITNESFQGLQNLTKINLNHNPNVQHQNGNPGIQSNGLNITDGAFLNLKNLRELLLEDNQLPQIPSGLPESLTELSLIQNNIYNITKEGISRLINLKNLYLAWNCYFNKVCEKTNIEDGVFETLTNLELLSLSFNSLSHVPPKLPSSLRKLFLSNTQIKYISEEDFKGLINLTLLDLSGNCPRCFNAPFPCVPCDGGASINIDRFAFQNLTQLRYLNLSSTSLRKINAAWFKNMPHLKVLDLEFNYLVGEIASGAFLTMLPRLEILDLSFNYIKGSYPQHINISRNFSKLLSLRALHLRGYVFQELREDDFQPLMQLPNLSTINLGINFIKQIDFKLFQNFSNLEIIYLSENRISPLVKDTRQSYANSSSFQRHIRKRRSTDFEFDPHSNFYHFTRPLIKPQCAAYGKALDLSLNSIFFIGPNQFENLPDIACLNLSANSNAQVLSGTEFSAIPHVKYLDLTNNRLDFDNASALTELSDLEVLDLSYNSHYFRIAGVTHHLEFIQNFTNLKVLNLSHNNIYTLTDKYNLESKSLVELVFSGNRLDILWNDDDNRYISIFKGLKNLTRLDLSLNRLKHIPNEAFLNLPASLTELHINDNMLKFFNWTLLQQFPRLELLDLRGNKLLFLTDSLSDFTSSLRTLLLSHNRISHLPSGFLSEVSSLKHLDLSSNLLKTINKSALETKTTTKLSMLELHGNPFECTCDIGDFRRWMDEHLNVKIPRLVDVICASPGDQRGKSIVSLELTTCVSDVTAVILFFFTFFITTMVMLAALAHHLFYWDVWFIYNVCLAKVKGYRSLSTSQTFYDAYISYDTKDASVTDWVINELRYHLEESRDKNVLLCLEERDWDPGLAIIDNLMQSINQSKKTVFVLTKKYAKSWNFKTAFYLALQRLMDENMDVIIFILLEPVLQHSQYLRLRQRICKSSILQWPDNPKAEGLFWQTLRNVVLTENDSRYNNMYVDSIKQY
Procedure, shortened: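 Stimulation is quantified as secreted alkaline phosphatase in supernatant using QUANTI-Blue™ substrate. Reporter HEK293 line co-transfected with hTLR8 and SEAP under an IFN-β minimal promoter with five NF-κB/AP-1 sites; 3.10E4 cells/well, 18 to 24 h pre-culture at 37° C. before compounds.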

SMILES	EC50 [1]	EC50 [2]	EC50 [3]	EC50 [4]	EC50 [5]
CCCCc1nc2c(N)nnc(OC(C)C)c2n1Cc1ccccn1 [Compound 75, 2-butyl-7-isopropoxy-1-(pyridin-2-ylmethyl)-1H-imidazo[4,5-d]pyridazin-4-amine]	181 nM	17 nM	34 nM	5120 nM	> 20000 nM
CCCCc1nc2c(N)nnc(N3CCC(c4ccccc4)C3)c2n1C (stereo not shown) [Compound 89, 2-butyl-1-methyl-7-(3-phenylpyrrolidin-1-yl)-1H-imidazo[4,5-d]pyridazin-4-amine]	466 nM	213 nM	214 nM	2350 nM	7560 nM
